For three compounds, Ki results are on record in BindingDB's records for doi:10.1128/AAC.37.4.810 (National Cancer Institute-Bethesda, 1993).

The test deals with T1, Dimer of Gag-Pol polyprotein [489-587] (Human immunodeficiency virus 1, UniProt P12497).
T1 construct: 489-587
The test is described as follows: Protease Inhibition Assay. The note with it: pH 6.2; 37 °C. The procedure: Inhibition constants were determined by a fluorometric assay with the fluorogenic substrate Arg-Glu(EDANS)-Ser-Gln-Asn-Tyr-Pro-Ile-Val-Lys(DABCYL)-Arg. The data were analyzed with the mathematical model for tight-binding inhibitors in which the concentration of inhibitor is less than or equal to the enzyme concentration. The data were fitted by nonlinear regression analysis to the equation with program Enzfitter (version 1.05).
The term Ki denotes a measure of affinity in units of concentration, obtained from inhibition or displacement. Compound `CSC[C@H](NC(=O)COc1cccc2cnccc12)C(=O)N[C@@H](Cc1ccccc1)[C@H](O)C(=O)N1CSC(C)(C)[C@H]1C(=O)NC(C)(C)C` gave an inhibitory constant (Ki) of 2.3 pM. This counts as picomolar.
The compound `CSC[C@H](NC(=O)COc1cccc2cnccc12)C(=O)N[C@@H](Cc1ccccc1)[C@H](O)C(=O)N1CSC[C@H]1C(=O)NC(C)(C)C` [Kynostatin 272] returned a Ki of 5.5 pM.
The same measure for `CC(C)(C)NC(=O)[C@H]1N(C(=O)[C@@H](O)[C@H](Cc2ccccc2)NC(=O)[C@H](CC(N)=O)NC(=O)COc2cccc3ccccc23)CSC1(C)C` [Noa-Asn-Apns-Dmt-NH-tBu]: 6.8 pM.
